# Values of other authors, collected in patent publication US12697339B2, “Composition and methods of treatment using synergistically-enhanced supplementation” (Xygenyx Inc., priority 2023, dated 2026).
# Non-standard residues stand in square brackets, D forms with d. Residues, ends and D or L forms follow the SMILES beside them. Cit = NC(=O)NCCC[C@H](N)C(=O)O
# Legend:
# [1] = system: skin; settings: as penetration enhancer for transdermal drugs
# [2] = studies using mice
# [3] = system: wide dynamic range neurons in the ventroposterolateral nucleus of the thalamus; settings: believed
# [4] = in vivo
# [5] = system: skin; settings: topical formulations, within four weeks of treatment
# [6] = system: skin; settings: topical application, concentrations 0.5-5%
# [7] = compared to α-tocopherol with biological activity factor 1.0
# [8] = even when dietary intake occurs in equal portions
# [9] = in vivo; remark: listed apart in the source
compound,measurement,setting,value
CC12CCC(CC1)C(C)(C)O2 [Eucalyptol],factor of increase in drug uptake via the transdermal route,[1],more than 10
"CC(CN)C(=O)O [L-BAIBA, L-beta-aminoisobutyric acid]",tolerated dose,[2],10-100 mg/kg of bodyweight
CC(C)[C@@H]1CC[C@@H](C)C[C@H]1O [Menthol],factor of increase in drug uptake via the transdermal route,[1],≥ 10
"CCCCCc1cc(O)c2c(c1)OC(C)(C)C1CCC(C)=CC21 (stereo not drawn) [THC, Δ-9-tetrahydrocannabinol]",power in mediating pain relative to morphine,[3],ten times more powerful than morphine
CCNC(=O)CC[C@H](N)C(=O)O [Theanine],dose considered safe and well-tolerated,[4],up to 400 mg per day
CC[C@H](C)[C@H](NC(=O)[C@H](CC(=O)O)NC(=O)[C@@H](N)CCCCN)C(=O)N[C@@H](CCCNC(N)=O)C(N)=O [Tripeptide-10 citrulline] (H-KDI[Cit]-NH2),improvement of suppleness,[5],≤ 54%
C=CCCCCCCCCC(=O)N[C@@H](Cc1ccccc1)C(=O)O [Undecylenoyl phenylalanine],time of treatment to skin lightening effects,[6],≥ 7 days
Cc1c(C)c2c(c(C)c1O)CC[C@@](C)(CCC[C@H](C)CCC[C@H](C)CCCC(C)C)O2 [α-tocopherol],reduction of risk of coronary disease,"dietary supplementation, doses up to 400 IU/day",up to 34%
same,reduction of risk of developing neurodegenerative diseases such as Alzheimer's Syndrome or dementia,"dietary supplementation, doses up to 400 IU/day, controlled trials",≤ 24%
same,reduction in the development of age-related cataracts,"in combination with 10-20 mg β-carotene and 400-500 mg vitamin C, doses around 400-500 IU",23%
Cc1cc(O)c(C)c2c1O[C@](C)(CCC[C@H](C)CCC[C@H](C)CCCC(C)C)CC2 [β-tocopherol],relative biological activity,[7],0.5
Cc1c(O)cc2c(c1C)O[C@](C)(CCC[C@H](C)CCC[C@H](C)CCCC(C)C)CC2 [γ-tocopherol],relative biological activity,[7],0.1
same,concentration in vivo relative to α-tocopherol,[8],roughly 10%
Cc1cc(O)cc2c1O[C@](C)(CCC[C@H](C)CCC[C@H](C)CCCC(C)C)CC2 [δ-tocopherol],relative biological activity,[7],0.03
HGH: hormone comprising a peptide chain that is synthesized in the pituitary gland,biological half-life,[9],10-20 minutes
